Test results: patent US20260232682A1, “GSPT1 DEGRADER COMPOUNDS” (Captor Therapeutics S.A., priority 2023, published 2026)
pKi: −log10 of the molar value.

Assays:
[1] = test system: GSPT1-HiBiT HEK293 cells; test: Cell Viability-CTG assay accompanying the Nano-Glo HiBiT assay; format: cell-based; conditions: 6 hours treatment, viability of GSPT1-HiBiT HEK293 cells
Description: In parallel, the Cell Viability-CTG assay was performed to ensure that the potential decrease of the luminescent signal observed in the Nano-Glo HiBiT assay is a result of protein degradation and not a result of decreasing cell viability. For CTG assay accompanying the Nano-Glo HiBiT assay, cells were cultured, seeded and treated as described above. After 6 hours of incubation (37° C., 5% CO2), plates were removed from the incubator and let to equilibrate to RT. Luminescent signal detection was conducted using the CellTiter-Glo Lumiescent Cell Viability Assay (Promega, cat. nr G7573). 10 μL of the Cell Titer Glo reagent was added per well, plates were shaken to facilitate lysis (460 rpm, 4 min, RT) and incubated in the dark for the following 8 min. Luminescence was read using the CLARIOstar multimode plate reader (BMG LABTECH). The raw data (the relative luminescence unit values, RLU) were uploaded under the relevant protocol and analysed in CDDVault data management platform, in a manner similar to the description above. The Mean Minimum values were calculated in CDDVault using non-linear regression and appropriate equations.

[2] = target: CRBN/DDB1 protein complex (Homo sapiens, UniProt Q96SW2); test: CRBN displacement TR-FRET assay; conditions: Thalidomide-Red tracer, 6×His-CRBN/DDB1; read-out: CRBN binding Ki
Chain of CRBN/DDB1 protein complex (Q96SW2 whole entry, species assumed): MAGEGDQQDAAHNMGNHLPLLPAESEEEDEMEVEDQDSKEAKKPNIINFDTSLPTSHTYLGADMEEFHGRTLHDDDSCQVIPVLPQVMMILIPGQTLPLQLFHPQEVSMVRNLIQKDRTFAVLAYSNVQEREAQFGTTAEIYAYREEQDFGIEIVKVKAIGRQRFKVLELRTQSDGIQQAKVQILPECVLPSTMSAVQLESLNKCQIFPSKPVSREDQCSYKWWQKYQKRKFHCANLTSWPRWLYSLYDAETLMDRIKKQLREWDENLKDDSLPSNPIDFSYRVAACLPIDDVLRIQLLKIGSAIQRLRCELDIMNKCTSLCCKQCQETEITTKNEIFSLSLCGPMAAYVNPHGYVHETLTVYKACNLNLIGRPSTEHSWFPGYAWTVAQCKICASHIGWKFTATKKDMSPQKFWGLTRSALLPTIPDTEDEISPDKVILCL
Chain of CRBN/DDB1 protein complex (Q16531 whole entry partner, species assumed): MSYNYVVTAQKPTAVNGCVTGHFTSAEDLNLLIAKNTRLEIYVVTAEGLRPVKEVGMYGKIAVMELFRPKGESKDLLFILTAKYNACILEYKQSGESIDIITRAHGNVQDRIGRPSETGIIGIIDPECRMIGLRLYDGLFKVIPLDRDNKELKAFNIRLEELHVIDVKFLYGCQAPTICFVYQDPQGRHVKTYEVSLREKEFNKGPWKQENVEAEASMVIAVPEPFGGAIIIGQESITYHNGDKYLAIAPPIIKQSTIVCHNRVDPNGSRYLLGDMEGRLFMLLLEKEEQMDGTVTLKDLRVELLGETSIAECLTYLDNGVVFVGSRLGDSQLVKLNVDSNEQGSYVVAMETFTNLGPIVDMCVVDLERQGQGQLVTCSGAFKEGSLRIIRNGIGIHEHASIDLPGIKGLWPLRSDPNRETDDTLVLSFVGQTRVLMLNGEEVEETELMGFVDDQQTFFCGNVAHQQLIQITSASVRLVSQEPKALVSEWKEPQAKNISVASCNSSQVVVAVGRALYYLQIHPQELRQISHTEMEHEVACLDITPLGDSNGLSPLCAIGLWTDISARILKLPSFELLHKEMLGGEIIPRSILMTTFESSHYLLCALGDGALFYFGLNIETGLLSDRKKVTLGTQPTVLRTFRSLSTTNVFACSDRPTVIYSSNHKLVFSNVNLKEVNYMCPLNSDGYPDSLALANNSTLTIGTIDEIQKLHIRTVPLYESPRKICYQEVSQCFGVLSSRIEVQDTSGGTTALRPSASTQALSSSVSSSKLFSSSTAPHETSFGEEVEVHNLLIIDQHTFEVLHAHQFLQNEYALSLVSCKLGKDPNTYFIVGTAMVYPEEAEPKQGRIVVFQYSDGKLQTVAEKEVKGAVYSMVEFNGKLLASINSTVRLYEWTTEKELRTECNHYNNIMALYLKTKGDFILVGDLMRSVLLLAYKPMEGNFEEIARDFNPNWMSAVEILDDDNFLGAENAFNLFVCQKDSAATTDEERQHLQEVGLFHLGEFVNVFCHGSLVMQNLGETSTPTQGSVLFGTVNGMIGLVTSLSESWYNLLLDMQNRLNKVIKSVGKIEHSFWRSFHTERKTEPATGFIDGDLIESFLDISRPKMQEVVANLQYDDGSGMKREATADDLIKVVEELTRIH
Description: CRBN/DDB1 protein complex was mixed with Thalidomide-Red and a compound to be tested (the “test compound”). The test solution contained PPI Europium detection buffer, 1 mM DTT, 6.8 nM Thalidomide-Red (the tracer), 5 nM 6×His-CRBN/DDB1 protein, 0.5 nM Anti-6× His-Eu cryptate, 1% DMSO. The test solution was added to a 384-well assay plate.
The plate was spun-down (1 min, 1000 rpm, 22° C.) and then shaken using a VibroTurbulator for 30 sec at room temperature (20-25° C.), with the frequency set to level 10. The assay plate with protein and the tracer was incubated for 180 min at room temperature (20-25° C.) prior to read-out with a plate reader. The read-out was performed with plate reader (Pherastar, BMG Labtech) in time resolved fluorescence mode. Filter settings: TR 337 665 620.
The CRBN displacement TR-FRET experiment was carried out with various concentrations of the test compounds in order to measure Ki values.
The Ki values of competitive inhibitors were calculated using the equation based on the IC50 values of relationship between compound concentration and measured […], the Kd value of the Thalidomide-Red and CRBN/DDB1 complex, and the concentrations of the protein and the tracer in the displacement assay (as described by Cheng and Prusoff, Biochem Pharmacol 1973; 22:3099-3108).

[3] = target: [GSPT1]-[compound of formula (I)]-[CRBN/DDB1] complex (Homo sapiens, UniProt P15170+Q96SW2); test: HTRF ternary complex assay (GSPT1); format: binding; conditions: read-out: HTRF ternary complex Average pEC50 by molecule (converted)
Chain of [GSPT1]-[compound of formula (I)]-[CRBN/DDB1] complex (P15170 whole entry): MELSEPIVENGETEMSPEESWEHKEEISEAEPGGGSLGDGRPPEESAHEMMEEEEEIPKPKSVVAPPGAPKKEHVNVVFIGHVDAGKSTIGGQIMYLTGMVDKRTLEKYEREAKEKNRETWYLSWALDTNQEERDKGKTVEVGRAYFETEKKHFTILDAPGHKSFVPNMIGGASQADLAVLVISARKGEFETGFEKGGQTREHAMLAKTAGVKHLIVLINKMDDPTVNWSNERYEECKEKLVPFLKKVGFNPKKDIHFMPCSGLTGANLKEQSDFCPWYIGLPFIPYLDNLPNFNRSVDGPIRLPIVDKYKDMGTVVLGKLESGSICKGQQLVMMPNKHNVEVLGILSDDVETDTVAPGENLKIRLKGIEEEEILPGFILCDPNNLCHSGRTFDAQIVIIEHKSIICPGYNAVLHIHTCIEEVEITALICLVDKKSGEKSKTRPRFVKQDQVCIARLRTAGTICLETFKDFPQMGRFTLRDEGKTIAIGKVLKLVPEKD
Chain of [GSPT1]-[compound of formula (I)]-[CRBN/DDB1] complex (Q96SW2 whole entry): as the sequence (Q96SW2 whole entry, species assumed) above
Chain of [GSPT1]-[compound of formula (I)]-[CRBN/DDB1] complex (Q16531 whole entry partner): as the sequence (Q16531 whole entry partner, species assumed) above
Description: The effect of the molecular glue compounds of the invention on the formation of a ternary complex composed of [GSPT1]-[compound of formula (I)]-[CRBN/DDB1] was investigated.
Mix solution of proteins and reagents was prepared: • 48 nM GSPT1, 52.8 nM 6×His-CRBN/DDB1, 3 nM of Streptavidin-Eu cryptate ([…]) and 6.67 nM of Anti-6×his-d2 ([…]) was prepared in PPI Europium detection buffer (purchased from Cisbio) with 1 mM DTT.
The tested compounds in dose-response were dispensed onto a white 384-well low volume plate (Greiner, 784075). DMSO was backfilled to all wells, resulting in a final DMSO content of 0.5%. Wells containing only DMSO served as background.
The plate was sealed with transparent film and shaken using a VibroTurbulator for 60 sec at level 3.
The plate was then spun down shortly (10 sec, 1000 rcf) and incubated at 25° C. for 180 min.
The read-out was performed with plate reader (Pherastar, BMG Labtech) in time resolved fluorescence mode. Filter settings: TR 337 665 620.
The results were analyzed as follows: • 1) an average of fluorescence for background signal was calculated and used as a negative control; • 2) raw fluorescence values for tested compounds were normalized against negative controls; • 3) saturation curve was fitted to specific binding with Hill slope model; • 4) EC50 and pEC50 values were determined.

[4] = target: T1, [IKZF1 ZF2]-[compound]-[CRBN/DDB1] ternary complex (Homo sapiens, UniProt Q13422+Q96SW2); test: AlphaLISA assay for off-target recruitment detection, IKZF1 ZF2; format: binding; conditions: 1 μM compound; normalized to Lenalidomide; read-out: Normalized ternary complex response, IKZF1 ZF2
T1 construct: IKZF1 ZF2
T1 sequence (Q13422 145-167 limits assumed): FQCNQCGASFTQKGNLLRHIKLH
T1 sequence (Q96SW2 whole entry): as the sequence (Q96SW2 whole entry, species assumed) above
T1 sequence (Q16531 whole entry partner): as the sequence (Q16531 whole entry partner, species assumed) above
Description: (§1) The ability of the molecular glue compounds of the invention to mediate the proximity of CRBN with its known neo-substrates (shown in Table 3) was assessed using AlphaLISA to detect the formation of a [neo-substrate]-[compound of formula (I)]-[CRBN/DDB1] ternary complex.
(§2) Two types of protein solution were prepared: • neo-substrate, 40 μg/ml AlphaScreen Donor Beads (Table 3) in PBS (10 mM phosphate buffer, 137 mM NaCL, 2.7 mM KCl, pH 7.4) buffer supplemented with Tween-20 (Table 3) and 1 mM DTT, • 200 nM 6×His-CRBN/DDB1, 40 μg/ml AlphaLISA Anti-6×His Acceptor beads in PBS buffer with Tween-20 (Table 3) and 1 mM DTT.
(§3) The prepared solutions were incubated at room temperature for 30 min and then the solution containing the donor beads was mixed with the solution containing the acceptor beads.
(§4) The tested compounds were dispensed onto a white 384-well AlphaPlate 384 SW. DMSO was backfilled to all wells, resulting in a final DMSO content of 2%. Wells containing only DMSO served as background. Next, 10 μl of solution with donor and acceptor beads was added to the wells.
(§5) The plate was sealed with transparent film and shaken using a VibroTurbulator for 60 sec at room temperature, level 3. The plate was then spun down shortly (10 sec, 1000 rcf, room temperature) and incubated at 25° C. for 30 min.
(§6) The read-out was performed with PerkinElmer Enspire Multimode Plate Reader (method for AlphaLISA 384-well low volume, Filterset: λexc=680 nm, λem=615 nm).
(§7) The results were analyzed as follows: • 1) an average of luminescence for background signal was calculated and used as a negative control; • 2) an average of the maximum measured luminescence for reference compound (Table 3) was calculated and used as an internal positive control; • 3) raw luminescence values were normalized against positive and negative controls; • 4) Normalized responses to reference molecular glue were determined.

[5] = target: T2, [SALL4 ZF2]-[compound]-[CRBN/DDB1] ternary complex (Homo sapiens, UniProt Q96SW2+Q9UJQ4); test: AlphaLISA assay for off-target recruitment detection, SALL4 ZF2; format: binding; conditions: 1 μM compound; normalized to Lenalidomide; read-out: Normalized ternary complex response, SALL4 ZF2
T2 construct: SALL4 ZF2
T2 sequence (Q9UJQ4 410-432 limits assumed): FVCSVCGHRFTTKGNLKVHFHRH
T2 sequence (Q96SW2 whole entry): as the sequence (Q96SW2 whole entry, species assumed) above
T2 sequence (Q16531 whole entry partner): as the sequence (Q16531 whole entry partner, species assumed) above
Description: as §1, §2, §3, §4, §5, §6, §7

| Structure (SMILES) | CTG assay Mean minimum [1] | pKi [2] | EC50 [3] [µM] | activation at 1 µM [4] [%] | activation at 1 µM [5] [%] |
| --- | --- | --- | --- | --- | --- |
| Cc1nc2cc(COC(=O)Nc3cc(C(C)(C)C)on3)ccc2cc1C1CCC(=O)NC1=O (stereo not drawn) [Compound 70, (3-(2,6-dioxopiperidin-3-yl)-2-methylquinolin-7-yl)methyl (5-(tert-butyl)isoxazol-3-yl)carbamate] | ++++ (++++≥75% of viability of the HiBiT-GSPT1 HEK293 cells) | > 6.30 | < 0.316 | < 10 | < 10 |
| Cc1nc2cc(COC(=O)Nc3ccc(C(F)(F)F)c(Cl)c3)ccc2cc1C1CCC(=O)NC1=O (stereo not drawn) [Compound 18, (3-(2,6-dioxopiperidin-3-yl)-2-methylquinolin-7-yl)methyl (3-chloro-4-(trifluoromethyl)phenyl)carbamate] | ++++ (++++≥75% of viability of the HiBiT-GSPT1 HEK293 cells) | 6.00 to 6.30 | 0.316 to 3.16 | < 10 | < 10 |
| Cc1nc2ccc(COC(=O)Nc3cc(C(C)(C)C)no3)cc2cc1N1CCC(=O)NC1=O [Compound 66, (3-(2,4-dioxotetrahydropyrimidin-1(2H)-yl)-2-methylquinolin-6-yl)methyl (3-(tert-butyl)isoxazol-5-yl)carbamate] | ++++ (++++≥75% of viability of the HiBiT-GSPT1 HEK293 cells) | > 6.30 | 0.316 to 3.16 | 25 to 50 | 25 to 50 |
| Cc1nc2cc(COC(=O)Nc3cc(Cl)c(C)c(CN4CCOCC4)c3)ccc2cc1C1CCC(=O)NC1=O (stereo not drawn) [Compound 17, (3-(2,6-dioxopiperidin-3-yl)-2-methylquinolin-7-yl)methyl (3-chloro-4-methyl-5-(morpholinomethyl)phenyl)carbamate] | ++++ (++++≥75% of viability of the HiBiT-GSPT1 HEK293 cells) | > 6.30 | < 0.316 | < 10 | < 10 |
| COc1ccc(NC(=O)OCc2ccc3cc(C4CCC(=O)NC4=O)c(C)nc3c2)cc1Cl (stereo not drawn) [Compound 11, (3-(2,6-dioxopiperidin-3-yl)-2-methylquinolin-7-yl)methyl (3-chloro-4-methoxyphenyl)carbamate] | ++++ (++++≥75% of viability of the HiBiT-GSPT1 HEK293 cells) | < 6.00 | 0.316 to 3.16 | < 10 | < 10 |
| Cc1ccc(NC(=O)NCc2ccc3nc(C)c(N4CCC(=O)NC4=O)cc3c2)cc1Cl [Compound 51, 1-(3-chloro-4-methylphenyl)-3-((3-(2,4-dioxotetrahydropyrimidin-1(2H)-yl)-2-methylquinolin-6-yl)methyl)urea] | ++++ (++++≥75% of viability of the HiBiT-GSPT1 HEK293 cells) | > 6.30 | < 0.316 | 25 to 50 | ≥ 50 |
| COc1cnc(NC(=O)OCc2ccc3cc(C4CCC(=O)NC4=O)c(C)nc3c2)cn1 (stereo not drawn) [Compound 59, (3-(2,6-dioxopiperidin-3-yl)-2-methylquinolin-7-yl)methyl (5-methoxypyrazin-2-yl)carbamate] | ++++ (++++≥75% of viability of the HiBiT-GSPT1 HEK293 cells) | > 6.30 | < 0.316 | < 10 | < 10 |
| Cc1ccc(NC(=O)OCc2ccc3nc(C)c(C4CCC(=O)NC4=O)cc3c2)cc1Cl (stereo not drawn) [Compound 5, (3-(2,6-dioxopiperidin-3-yl)-2-methylquinolin-6-yl)methyl (3-chloro-4-methylphenyl)carbamate] | – | > 6.30 | > 3.16 | 25 to 50 | 25 to 50 |
| Cc1ccc(NC(=O)OCc2ccc3nc(C)c(N4CCC(=O)NC4=O)cc3c2)cc1Cl [Compound 29, (3-(2,4-dioxotetrahydropyrimidin-1(2H)-yl)-2-methylquinolin-6-yl)methyl (3-chloro-4-methylphenyl)carbamate] | ++++ (++++≥75% of viability of the HiBiT-GSPT1 HEK293 cells) | > 6.30 | > 3.16 | 10 to 25 | 25 to 50 |
| Cc1nc2cc(COC(=O)Nc3cc(C(C)(C)C)n[nH]3)ccc2cc1C1CCC(=O)NC1=O (stereo not drawn) [Compound 75, (3-(2,6-dioxopiperidin-3-yl)-2-methylquinolin-7-yl)methyl (3-(tert-butyl)-1H-pyrazol-5-yl)carbamate] | ++++ (++++≥75% of viability of the HiBiT-GSPT1 HEK293 cells) | < 6.00 | 0.316 to 3.16 | < 10 | < 10 |
| Cc1ccc(NC(=O)OCc2ccc3cc(C4CCC(=O)NC4=O)c(C)nc3c2)c(Cl)c1Cl (stereo not drawn) [Compound 54, (3-(2,6-dioxopiperidin-3-yl)-2-methylquinolin-7-yl)methyl (2,3-dichloro-4-methylphenyl)carbamate] | ++++ (++++≥75% of viability of the HiBiT-GSPT1 HEK293 cells) | 6.00 to 6.30 | 0.316 to 3.16 | < 10 | < 10 |
| Cc1nc2cc(COC(=O)Nc3cccc(OC(F)(F)F)c3)ccc2cc1C1CCC(=O)NC1=O (stereo not drawn) [Compound 19, (3-(2,6-dioxopiperidin-3-yl)-2-methylquinolin-7-yl)methyl (3-(trifluoromethoxy)phenyl)carbamate] | ++++ (++++≥75% of viability of the HiBiT-GSPT1 HEK293 cells) | < 6.00 | > 3.16 | < 10 | < 10 |
| Cc1ccc(NC(=S)NCc2ccc3cc(C4CCC(=O)NC4=O)c(C)nc3c2)cc1Cl (stereo not drawn) [Compound 2, 1-(3-chloro-4-methylphenyl)-3-((3-(2,6-dioxopiperidin-3-yl)-2-methylquinolin-7-yl)methyl)thiourea] | – | 6.00 to 6.30 | > 3.16 | < 10 | < 10 |
